Target: T1, KRAS G12C 1-169, his-tagged protein, GDP-loaded (Homo sapiens, UniProt P01116, G12C)
T1 construct: KRAS G12C 1-169, his-tagged protein, GDP-loaded
Test: Biochemical assay: covalent binding to KRAS G12C analyzed by mass spectrometry; note: test concentration or dose not given here

[1] = compounds 48-246, measured at 2 h
[2] = compounds 247-342, measured at 30 min

T1 sequence (P01116 1-169 isoform P01116-2 G12C): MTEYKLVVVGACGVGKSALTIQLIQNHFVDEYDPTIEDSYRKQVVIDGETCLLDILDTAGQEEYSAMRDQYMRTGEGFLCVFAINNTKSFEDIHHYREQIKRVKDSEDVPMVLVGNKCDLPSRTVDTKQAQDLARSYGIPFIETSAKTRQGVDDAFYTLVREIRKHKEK

SMILES	Binding % [1]	other results
C=CC(=O)N1CCN(c2ncnc3cc(-c4c(O)cccc4F)c(C(F)(F)F)cc23)CC1 [Compound I-208, 1-(4-(7-(2-fluoro-6-hydroxyphenyl)-6-(trifluoromethyl)quinazolin-4-yl)piperazin-1-yl)prop-2-en-1-one]	++++ (++++indicates binding activity greater than 75%)	
C=CC(=O)N1CCN(c2ncnc3cc(-c4ccccc4Cl)c(Cl)cc23)CC1 [Compound I-72, 1-(4-(6-chloro-7-(2-chlorophenyl)quinazolin-4-yl)piperazin-1-yl)prop-2-en-1-one]	++ (++indicates binding activity greater than 25% and up to 50%)	
CN(C)C/C=C/C(=O)N1CCN(c2ncnc3c(F)c(-c4ccccc4F)c(-c4ccccc4F)cc23)CC1 [Compound I-230, (E)-4-(dimethylamino)-1-(4-(8-fluoro-6,7-bis(2-fluorophenyl)quinazolin-4-yl)piperazin-1-yl)but-2-en-1-one]	+ (+indicates binding activity from 5% to 25%)	
C=CC(=O)N1CCN(c2ncnc3cc(-c4c(O)ccc5c4CCCC5)c(Cl)cc23)CC1 [Compound I-250, 1-(4-(6-chloro-7-(2-hydroxy-5,6,7,8-tetrahydronaphthalen-1-yl)quinazolin-4-yl)piperazin-1-yl)prop-2-en-1-one]		Binding % [2]: ++ (++indicates binding activity greater than 25% and up to 50%)
C=CC(=O)N1CCN(c2ncnc3cc(-c4ccccc4)c(Cl)cc23)CC1CO (stereo not shown) [Compound I-116, 1-(4-(6-chloro-7-phenylquinazolin-4-yl)-2-(hydroxymethyl)piperazin-1-yl)prop-2-en-1-one]	++ (++indicates binding activity greater than 25% and up to 50%)	
C=CC(=O)N1CCN(c2ncnc3cc(-c4ccccc4)c(Cl)cc23)CC1C(N)=O (stereo not shown) [Compound I-104, 1-acryloyl-4-(6-chloro-7-phenylquinazolin-4-yl)piperazine-2-carboxamide]	+++ (+++indicates binding activity greater than 50% and up to 75%)	
C=CC(=O)N1CCN(c2ncnc3cc(-c4cc(O)ccc4Cl)c(C(F)(F)F)cc23)CC1 [Compound I-207, 1-(4-(7-(2-chloro-5-hydroxyphenyl)-6-(trifluoromethyl)quinazolin-4-yl)piperazin-1-yl)prop-2-en-1-one]	++++ (++++indicates binding activity greater than 75%)	
C=CC(=O)N1CCN(c2ncnc3cc(Cl)c(-c4ccc(C#N)cc4)cc23)CC1 [Compound I-16, 4-(4-(4-acryloylpiperazin-1-yl)-7-chloroquinazolin-6-yl)benzonitrile]		Binding % (compounds 1-47, measured at 24 h): ++ (++indicates binding activity greater than 25% and up to 50%)
C=CC(=O)N1CCN(c2nc(OC)nc3cc(-c4ccccc4)c(Cl)cc23)CC1 [Compound I-94, 1-(4-(6-chloro-2-methoxy-7-phenylquinazolin-4-yl)piperazin-1-yl)prop-2-en-1-one]	++ (++indicates binding activity greater than 25% and up to 50%)	
C=CC(=O)N1CCN(c2ncnc3c(F)c(-c4ccccc4F)c(C(F)(F)F)cc23)CC1 [Compound I-271]		Binding % [2]: +++ (+++indicates binding activity greater than 50% and up to 75%)
C=CC(=O)N1CC(N2CCN(C(=O)CNc3cc(CC(F)(F)F)c(Cl)cc3O)CC2)C1 [II-57, 1-(3-(4-(2-((4-Chloro-2-hydroxy-5-(2,2,2-trifluoroethyl)phenyl)amino)acetyl)piperazin-1-yl)azetidin-1-yl)prop-2-en-1-one]		Binding % (determined at 2 hrs): ++ (++indicates binding activity greater than 20%)
C=CS(=O)(=O)N1CCN(C2CN(C(=O)CNc3cc(Cl)c(Cl)cc3O)C2)CC1 [II-40, 2-(4,5-dichloro-2-hydroxyphenylamino)-1-(3-(4-(vinylsulfonyl)-piperazin-1-yl)azetidin-1-yl)ethanone]		Binding % (determined at 24 hrs): ++++ (++++indicates binding activity greater than 50%)
C=CC(=O)N1CC(N2CCN(C(=O)CNc3cc(C#N)c(Cl)cc3Cl)CC2)C1 [II-9, 5-(2-(4-(1-acryloylazetidin-3-yl)piperazin-1-yl)-2-oxoethylamino)-2,4-dichlorobenzonitrile]		Binding % (determined at 24 hrs): + (+indicates binding activity from 5% to 15%)

From patent US10111874B2, “Combination therapies for treatment of cancer” (Araxes Pharma LLC, priority 2014, dated 2018)
